Values of other authors as cited in patent publication US11123318B2 (APR APPLIED PHARMA RESEARCH S.A., priority 2017, dated 2021).

Experiments:
[1] = not given; remark: listed apart in the source

## O=C(O)Cc1ccccc1Nc1c(Cl)cccc1Cl [Diclofenac, 2-(2-[2,6-diclorofenilammino]phenyl) ethanoic acid]
After oral administration
  absorption through the gastrointestinal tract: completely absorbed
  time to peak plasma level: ≤ 1 h
In vivo
  administered dose eliminated as the metabolite by the renal route: About 60%
  administered dose excreted in the bile and in the faeces: About 30%
  excreted as unchanged substance by the renal route: less than 1%
[1]
  solubility in water: low solubility
